Source: patent US20160250213A1, “FORMULATIONS OF AZAINDOLE COMPOUNDS” (priority 2013, published 2016)
“And” between values parts separate entries of the source, which are not always exact repeats. Equal values may be shown once. Read-outs that look alike come from different tables or passages of the source. Marks after values point to notes of the source that are not given here.

Key:
[1] = system: influenza A/Wisconsin/67/2005 (H3N2) challenge strain virus; type: in vivo, humans (healthy volunteers)
[2] = system: A/South Dakota/6/2007 (H1N1); test: microbe, parasite or virus in culture; type: cell-based; details: Influenza A virus, MDCK, read-out: Cell Protection Assay EC50 ± SD
[3] = system: Influenza A/Victoria/3/75 (H3N2) virus; type: in vivo, BALB/c mice
[4] = system: A/Equine/2/Miami/63 (H3N8); test: microbe, parasite or virus in culture; type: cell-based; details: Influenza A virus, H3N8, MDCK, read-out: Cell Protection Assay EC50 ± SD
A/Georgia/17/2006 (H1N1) = test: microbe, parasite or virus in culture; type: cell-based; details: Influenza A virus, MDCK, read-out: Cell Protection Assay EC50 ± SD
A/Denver/1/57 (H1N1) = test: microbe, parasite or virus in culture; type: cell-based; details: Influenza A virus, MDCK, read-out: Cell Protection Assay EC50 ± SD
[5] = system: influenza A/PR/8/34 (5×10^3 TCID50); design: species or system mice; details: mouse, in vivo
A/Missouri/3/2006 (H1N1) = test: microbe, parasite or virus in culture; type: cell-based; details: Influenza A virus, MDCK, read-out: Cell Protection Assay EC50 ± SD
influenza A virus = type: in vivo, mice; details: mouse, in vivo
[6] = system: A/Chelyabinsk/1/2006 (H1N1); test: microbe, parasite or virus in culture; type: cell-based; details: Influenza A virus, MDCK, read-out: Cell Protection Assay EC50 ± SD
B/Lee/40 = test: microbe, parasite or virus in culture; type: cell-based; details: Influenza B virus, MDCK, read-out: Cell Protection Assay EC50 ± SD
[7] = system: Influenza A/Vietnam/1203/2004 (H5N1) virus; design: species or system BALB/c mice; details: mouse, in vivo
A/New Jersey/8/76 (H1N1) = test: microbe, parasite or virus in culture; type: cell-based; details: Influenza A virus, H1N1, MDCK, read-out: Cell Protection Assay EC50 ± SD
A/Swine/1976/31 (H1N1) = test: microbe, parasite or virus in culture; type: cell-based; details: Influenza A virus, H1N1, MDCK, in Sus scrofa, read-out: Cell Protection Assay EC50 ± SD
A/Hawaii/2/2006 (H3N2) = test: microbe, parasite or virus in culture; type: cell-based; details: Influenza A virus, MDCK, read-out: Cell Protection Assay EC50 ± SD
influenza A = system: influenza A; design: species or system mice; details: mouse, in vivo
[8] = system: influenza A/Wisconsin/67/2005 (H3N2) challenge strain virus; type: in vivo, humans (healthy volunteers); details: for Viral Shedding by Tissue Culture, AUC, median: Days 1-7
A/Aichi/2/68 (H3N2) = test: microbe, parasite or virus in culture; type: cell-based; details: Influenza A virus, MDCK, read-out: Cell Protection Assay EC50 ± SD
A/Hong Kong/8/68 (H3N2) = test: microbe, parasite or virus in culture; type: cell-based; details: Influenza A virus, MDCK, read-out: Cell Protection Assay EC50 ± SD
[9] = 900 mg Day 1, 600 mg Days 2-5, […]
[10] = 1200 mg Day 1, 600 mg Days 2-5, […]
[11] = pooled Compound (1) dose groups, […]
[12] = 1 mg/kg p.o. twice a day for 10 days starting 2 hours prior to virus exposure
[13] = 3 mg/kg p.o. twice a day for 10 days starting 2 hours prior to virus exposure
[14] = 10 mg/kg p.o. twice a day for 10 days starting 2 hours prior to virus exposure
[15] = 100 mg QD 5 days, FA set N = 12
[16] = 400 mg QD 5 days, FA set N = 12
[17] = 900 mg Day 1, 600 mg Days 2-5, FA set N = 14
[18] = 1200 mg Day 1, 600 mg Days 2-5, FA set N = 14
[19] = pooled Compound (1) dose groups, FA set N = 52

SMILES: O=C(O)[C@H]1C2CCC(CC2)C1Nc1nc(-c2c[nH]c3ncc(F)cc23)ncc1F (stereo partly drawn) [Compound (1)]
- Serology, Sero-conversion (%) [1, 9]: (68%)
- Serology, Sero-conversion, n/N [1, 9]: 13/19
- Serology, Sero-conversion (%) [1, 10]: (67%)
- Serology, Sero-conversion, n/N [1, 10]: 12/18
- Serology, Sero-conversion, n/N ([1]; in vivo): 11/16 and 9/19
- Serology, Sero-conversion (%) [1, 11]: (63%)
- Serology, Sero-conversion, n/N [1, 11]: 45/72
- EC50 [2]: 0.31 ± 0.25 nM
- MDD ± SD (mean day of death of mice that died on or before day 21) [3, 12]: 9.8 ± 1.9
- Mean Lung Parameters (Day 6): Score (hemorrhage, 0 to 4) [3, 12]: 3.2 ± 0.3^e
- Mean Lung Parameters (Day 6): Virus Titer [3, 12]: 7.3 ± 0.3 Log10 CCID50/g
- Mean Lung Parameters (Day 6): Weight [3, 12]: 274 ± 49 mg
- Survivors/Total [3, 12]: 4/10
- Mean Lung Parameters (Day 6): Score (hemorrhage, 0 to 4) [3, 13]: 3.3 ± 0.6^e
- Mean Lung Parameters (Day 6): Virus Titer [3, 13]: 7.2 ± 0.2 Log10 CCID50/g
- Mean Lung Parameters (Day 6): Weight [3, 13]: 260 ± 25 mg
- Mean Lung Parameters (Day 6): Score (hemorrhage, 0 to 4) [3, 14]: 0.1 ± 0.2^d
- Mean Lung Parameters (Day 6): Virus Titer [3, 14]: 6.1 ± 0.5 Log10 CCID50/g
- Mean Lung Parameters (Day 6): Weight [3, 14]: 164 ± 11 mg
- EC50 [4]: 0.5 ± 0.065 nM
- EC50 (A/Georgia/17/2006 (H1N1)): 0.13 ± 0.048 nM
- EC50 (A/Denver/1/57 (H1N1)): 0.42 ± 0.19 nM
- Survival Rate ([5]; 0.1 mg/kg): 12.5
- Survival Rate ([5]; 0.3 mg/kg): 44.4
- Survival Rate ([5]; 1 mg/kg): 100
- EC50 (A/Missouri/3/2006 (H1N1)): 0.21 ± 0.06 nM
- survival (influenza A virus): 2/8
- EC50 [6]: 0.7 ± 0.49 nM
- EC50 (B/Lee/40): > 10 nM
- MDD ± SD (mean day of death of mice that died on or before day 21) [7]: >21
- Mean Lung Parameters (Day 6): Virus Titer [7]: 3.75 ± 0.94 Log 10 CCID50/g
- Survivors/Total [7]: 10/10
- EC50 (A/New Jersey/8/76 (H1N1)): 0.2 ± 0.096 nM
- EC50 (A/Swine/1976/31 (H1N1)): 0.47 ± 0.11 nM
- EC50 (A/Hawaii/2/2006 (H3N2)): 1.4 ± 0.91 nM
- Log10 Reduction vs. Vehicle (influenza A): −1.08 Log10
- Log10 Reduction vs. Vehicle (influenza A; 3 mg/kg): −1.04 Log10
- Lung Viral Titer (influenza A; 3 mg/kg): 5.24 *** Log10 TCID50
- Lung Viral Titer (influenza A; 10 mg/kg): 5.20*** Log10 TCID50
- Lung Viral Titer (influenza A; 30 mg/kg): 3.95 Log10 TCID50 and 4.53*** Log10 TCID50
- Viral Shedding by Tissue Culture, Duration, median [8, 15]: 0.96 days
- Viral Shedding by Tissue Culture, Peak, mean [8, 15]: 2.09 log10 TCID50/mL
- Viral Shedding by Tissue Culture, AUC, median [8, 15]: 1.25 log10 TCID50 mL*Day
- Viral Shedding by Tissue Culture, Duration, median [8, 16]: 1.60 days
- Viral Shedding by Tissue Culture, Peak, mean [8, 16]: 1.73 log10 TCID50/mL
- Viral Shedding by Tissue Culture, AUC, median [8, 16]: 0.70 log10 TCID50 mL*Day
- Viral Shedding by Tissue Culture, Duration, median [8, 17]: 2.71 days
- Viral Shedding by Tissue Culture, Peak, mean [8, 17]: 2.68 log10 TCID50/mL
- Viral Shedding by Tissue Culture, AUC, median [8, 17]: 3.20 log10 TCID50 mL*Day
- Viral Shedding by Tissue Culture, Duration, median [8, 18]: 0.00 days
- Viral Shedding by Tissue Culture, Peak, mean [8, 18]: 1.00 log10 TCID50/mL
- Viral Shedding by Tissue Culture, AUC, median [8, 18]: 0.35 log10 TCID50 mL*Day
- Viral Shedding by Tissue Culture, Duration, median [8, 19]: 0.71 days
- Viral Shedding by Tissue Culture, Peak, mean [8, 19]: 1.87 log10 TCID50/mL
- Viral Shedding by Tissue Culture, AUC, median [8, 19]: 0.65 log10 TCID50 mL*Day
- EC50 (A/Aichi/2/68 (H3N2)): 1.4 ± 1.1 nM
- EC50 (A/Hong Kong/8/68 (H3N2)): 0.6 ± 0.11 nM
